For 25 compounds, IC50 and logD results are on record in ChEMBL document CHEMBL1142797, “2-Aminoquinazoline inhibitors of cyclin-dependent kinases” (Bioorg Med Chem Lett, 2005).

Data set [1] is described as follows: Inhibitory concentration against CDK2/ Cyclin A.
Data set [2] concerns the target Cyclin-dependent kinase 2/cyclin E1 (Homo sapiens, UniProt P24941). Nature of the data set: Inhibitory concentration against CDK2/ Cyclin E. Type of data set: protein-complex assay.
Data set [3] deals with Cyclin-dependent kinase 4/cyclin D1 (Homo sapiens, UniProt P11802). The data set is described as follows: Inhibitory concentration against CDK4/ Cyclin D. Type of data set: protein-complex assay.
Chain of Cyclin-dependent kinase 4/cyclin D1 (P11802 whole entry): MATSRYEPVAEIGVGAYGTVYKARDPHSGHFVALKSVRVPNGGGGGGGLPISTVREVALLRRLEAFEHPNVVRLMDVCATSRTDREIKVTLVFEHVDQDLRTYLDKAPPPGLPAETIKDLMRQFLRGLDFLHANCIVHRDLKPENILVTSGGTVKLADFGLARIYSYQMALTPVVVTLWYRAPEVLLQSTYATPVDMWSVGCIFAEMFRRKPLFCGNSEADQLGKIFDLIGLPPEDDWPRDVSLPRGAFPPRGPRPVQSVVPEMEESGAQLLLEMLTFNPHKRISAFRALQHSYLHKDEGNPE
Chain of Cyclin-dependent kinase 4/cyclin D1 (P24385 whole entry, further chain): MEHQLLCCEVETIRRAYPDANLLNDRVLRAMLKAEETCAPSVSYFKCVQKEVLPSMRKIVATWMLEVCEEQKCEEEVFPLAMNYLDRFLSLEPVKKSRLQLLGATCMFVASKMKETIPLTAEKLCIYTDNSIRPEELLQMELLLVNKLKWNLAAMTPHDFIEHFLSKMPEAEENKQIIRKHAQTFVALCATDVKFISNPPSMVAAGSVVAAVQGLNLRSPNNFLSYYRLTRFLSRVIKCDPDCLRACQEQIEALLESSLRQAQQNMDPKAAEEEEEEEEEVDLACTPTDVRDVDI
In data set [4] the target is Cyclin-dependent kinase 1/cyclin B1 (Homo sapiens, UniProt P06493). Nature of the data set: Inhibitory concentration against CDK1/ Cyclin B. Type of data set: protein-complex assay.
Chain of Cyclin-dependent kinase 1/cyclin B1 (P06493 whole entry): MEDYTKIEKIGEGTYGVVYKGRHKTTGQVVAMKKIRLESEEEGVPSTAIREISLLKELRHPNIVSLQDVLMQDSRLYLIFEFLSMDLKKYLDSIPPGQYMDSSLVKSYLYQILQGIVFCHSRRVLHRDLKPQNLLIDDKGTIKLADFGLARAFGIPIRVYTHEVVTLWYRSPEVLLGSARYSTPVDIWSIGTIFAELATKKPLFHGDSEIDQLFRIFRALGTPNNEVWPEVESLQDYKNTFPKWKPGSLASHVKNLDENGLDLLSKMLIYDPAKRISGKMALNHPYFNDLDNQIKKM
Chain of Cyclin-dependent kinase 1/cyclin B1 (P14635 whole entry, further chain): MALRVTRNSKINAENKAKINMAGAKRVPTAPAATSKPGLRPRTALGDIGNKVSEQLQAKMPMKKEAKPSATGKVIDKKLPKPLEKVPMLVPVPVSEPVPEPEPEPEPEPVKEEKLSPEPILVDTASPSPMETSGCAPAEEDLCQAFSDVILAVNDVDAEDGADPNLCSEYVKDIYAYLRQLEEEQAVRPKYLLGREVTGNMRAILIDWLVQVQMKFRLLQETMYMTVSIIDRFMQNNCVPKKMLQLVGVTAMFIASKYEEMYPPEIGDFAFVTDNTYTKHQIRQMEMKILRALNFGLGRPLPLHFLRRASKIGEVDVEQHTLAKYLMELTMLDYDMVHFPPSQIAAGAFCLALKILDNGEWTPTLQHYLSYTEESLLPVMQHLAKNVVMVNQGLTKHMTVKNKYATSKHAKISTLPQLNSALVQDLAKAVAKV
A short description of data set [5]: Distribution coefficient at pH 7.4. The following applies: octanol/water. The data set is classed as physicochemical.
In data set [6] the test system is HCT-116. The data set is described as follows: Antiproliferative activity against HCT116 cell lines of human. Type of data set: functional, cell-based.

In general, IC50 refers to the concentration at which inhibition is half-maximal. Higher therefore signals weaker potency in that assay. On to `Oc1ccc2cnc(Nc3ccc(N4CCOCC4)cc3)nc2c1C1CCCC1`, for which the IC50 is 180 nM in data set [1], 635 nM in data set [2], 3 nM in data set [3] and 1940 nM in data set [4].

The compound `COc1ccc2cnc(Nc3ccc(N4CCNCC4)cc3)nc2c1C1CCCC1` returned an IC50 in data set [1] of 28 nM.

The compound `CC(C)c1c(O)ccc2cnc(Nc3ccccc3)nc12` returned an IC50 in data set [1] of 250 nM.

A word on the logD: it is lipophilicity at a set pH, counting ionised and neutral species. `COc1cc(C)c2cnc(Nc3ccc(N4CCN(C(C)=O)CC4)cc3)nc2c1C1CCCC1`: the IC50 in data set [1] was > 5000 nM; in data set [2] it was > 5000 nM; in data set [3], 4130 nM; in data set [4] it was > 5000 nM. This compound also gave a logD in data set [5] of 3.77.

For the compound `COc1ccc2cnc(Nc3ccc(N4CCC(N)C4)cc3)nc2c1C1CCCC1` (stereo unspecified), the IC50 turned out to be 203 nM in data set [1] and 775 nM in data set [2].

Turning to `COc1ccc2cnc(Nc3ccc(N4CCCC4)cc3)nc2c1C(C)C`, the IC50 is 1600 nM in data set [1], > 5000 nM in data set [2] and > 5000 nM in data set [4].

In the case of `COc1ccc2cnc(Nc3ccc(N4CCN(C(C)=O)CC4)cc3)nc2c1C1CCCC1`, the IC50 in data set [4] was > 5000 nM.

In data set [1], `COc1ccc2cnc(Nc3ccc(N4CCOCC4)cc3)nc2c1C(C)C` displayed an IC50 of 665 nM.

Regarding `COc1ccc2cnc(Nc3ccc(N4CCNCC4)c(F)c3)nc2c1C(C)C`, the IC50 in data set [1] was 141 nM; in data set [2] it was 655 nM; in data set [3], 7 nM; in data set [4], 743 nM.

In turn, `COc1ccc2cnc(Nc3ccc(N4CCNCC4)cc3)nc2c1C(C)C` returned a concentration for half-maximal inhibition (IC50) in data set [1] of 185 nM.

`COc1ccc2cnc(Nc3ccc(N4CCNCC4)c(F)c3)nc2c1C1CCCC1`: in data set [1], it took 62 nM to reach half-maximal inhibition (IC50).

Regarding `Cc1cc(O)c(C2CCCC2)c2nc(Nc3ccc(N4CCNCC4)cc3)ncc12`, the IC50 is > 5000 nM in data set [1]; > 5000 nM in data set [2]; 20 nM in data set [3]; 100 nM in data set [6]; > 5000 nM in data set [4]. Besides, the pH-dependent lipophilicity (logD) in data set [5] amounted to 1.39.

Take `COc1ccc2cnc(Nc3ccc(N4CCCCC4)cc3)nc2c1C1CCCC1`: the IC50 in data set [1] is 384 nM; in data set [2], > 5000 nM; in data set [4], > 5000 nM.

For the compound `COc1ccc2cnc(Nc3ccccc3)nc2c1C1CCCC1`, the IC50 was 202 nM in data set [1], 650 nM in data set [2], 166 nM in data set [3] and 801 nM in data set [4].

Consider `COc1ccc2cnc(Nc3ccc(N4CCC(N)C4)cc3)nc2c1C(C)C` (stereo unspecified), for which the concentration for half-maximal inhibition (IC50) in data set [1] was 296 nM.

Turning to `COc1cc(C)c2cnc(Nc3ccc(N4CCNCC4)cc3)nc2c1C1CCCC1`, the IC50 was > 5000 nM in data set [1], > 5000 nM in data set [2], 55 nM in data set [3] and > 5000 nM in data set [4]. Also, the logD in data set [5] came to 2.32.

In data set [1], `COc1ccc2cnc(Nc3ccccc3)nc2c1C(C)C` showed an IC50 of 253 nM.

In data set [1], `COc1ccc2cnc(Nc3ccc(N4CCN(C(=O)CN)CC4)cc3)nc2c1C1CCCC1` registered an IC50 of 95 nM.

`COc1ccc2cnc(Nc3ccc(N4CCN(C(=O)CN)CC4)cc3)nc2c1C(C)C` registered an IC50 in data set [1] of 191 nM.

Take `Oc1ccc2cnc(Nc3ccc(N4CCNCC4)cc3)nc2c1C1CCCC1`: the concentration for half-maximal inhibition (IC50) is 82 nM in data set [1], 320 nM in data set [2], 1 nM in data set [3] and 30 nM in data set [4].

Turning to `Cc1cc(=O)n(C2CCCC2)c2nc(Nc3ccc(N4CCNCC4)cc3)ncc12`, the pH-dependent lipophilicity (logD) in data set [5] worked out at 0.63. Moreover, the IC50 in data set [4] is > 5000 nM.

Take `COc1ccc2cnc(Nc3ccc(N4CCCCC4)cc3)nc2c1C(C)C`: the IC50 is 410 nM in data set [1] and > 5000 nM in data set [4].

For `COc1ccc2cnc(Nc3ccc(N4CCCC4)cc3)nc2c1C1CCCC1`, the IC50 in data set [1] and in data set [4] was > 5000 nM each time.

Turning to `COc1ccc2cnc(Nc3ccc(N4CCOCC4)cc3)nc2c1C1CCCC1`, it took 384 nM to reach half-maximal inhibition in data set [1] (IC50).

As for `Oc1ccc2cnc(Nc3ccc(N4CCNCC4)c(F)c3)nc2c1C1CCCC1`, the 50% inhibitory concentration (IC50) in data set [1] turned out to be 112 nM; in data set [2], 270 nM; in data set [3], 1 nM; in data set [4], 761 nM.
